Test results published in patent US20260265244A1, “HETEROCYCLIC COMPOUNDS AS STING ANTAGONISTS” (Boehringer Ingelheim International GmbH, priority 2022, published 2026).
pIC50: −log10 of the molar value.

Legend:
[1] = target: T1, cGAMP binding domain of wild-type (GRR) human STING, residues 155-341 (Homo sapiens, UniProt Q86WV6, H232R); assay: Increase of stability of STING protein against thermal denaturation, Differential Scanning Fluorimetry (DSF)
T1 construct: His-TEV-hSTING (WT); TEV protease cleavage site (N); made in house; host or cells: E. coli BL21 DE3
Outline: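 3 µM His-tagged protein with 100 uM compound, 5×SYPRO Orange, 2% DMSO in 20 mM Tris, 150 mM NaCl, pH7.5; 15–95 °C ramp in 0.5 °C steps (15 s/cycle). Tm from Boltzmann fit of the dye melt curve, duplicates averaged, repeated if SD>1.5 °C; ΔTm = Tm with compound minus Tm of protein alone.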

human STING WT (R232) = target: T2, human STING WT (R232) (Homo sapiens, UniProt Q86WV6, H232R); assay: Human STING HTRF binding assay (competitive, Cisbio 64BDSTGPEG)
T2 construct: purchased Cisbio 64BDSTGPEG
Outline: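 Competitive HTRF: 6His-tagged human STING WT R232 binding domain (residues 138-379) with anti-6His Cryptate antibody and d2-labeled STING ligand, 180 min at room temperature, 1% DMSO, 8 concentrations from 10 μM or 1 μM top in ~1:5 steps. HTRF ratios were calibrated to a cGAMP standard curve and IC50 obtained by 4-parameter logistic fit.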

T2 sequence (Q86WV6 138-379 H232R): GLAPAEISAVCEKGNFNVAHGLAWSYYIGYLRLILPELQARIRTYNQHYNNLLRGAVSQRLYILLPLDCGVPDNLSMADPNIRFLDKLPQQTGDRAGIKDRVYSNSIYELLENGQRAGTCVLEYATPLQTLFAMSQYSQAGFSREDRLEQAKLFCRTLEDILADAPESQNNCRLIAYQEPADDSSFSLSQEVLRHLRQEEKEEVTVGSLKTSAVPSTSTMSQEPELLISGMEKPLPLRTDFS
T1 sequence (Q86WV6 with tags, fused parts or gaps H232R): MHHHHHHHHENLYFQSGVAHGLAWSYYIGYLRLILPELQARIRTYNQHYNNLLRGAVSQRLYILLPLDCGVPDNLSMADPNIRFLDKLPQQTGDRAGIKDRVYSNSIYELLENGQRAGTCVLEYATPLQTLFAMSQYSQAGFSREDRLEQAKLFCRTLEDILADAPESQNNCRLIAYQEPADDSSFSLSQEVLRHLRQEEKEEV

Row | DSF [1] [K] | pIC50 (human STING WT (R232)) | Compound
1 | 24 | 7.60 | Cc1c(C(C)C)c(-c2cccc3nn(C[C@H](O)c4ccccc4)cc23)nn1-c1cc2cn(C)nc2nc1C1CCCN1 (stereo partly drawn) [Example 111, (1R)-2-(4-{5-Methyl-1-[2-methyl-6-(pyrrolidin-2-yl)-2H-pyrazolo[3,4-b]pyridin-5-yl]-4-(propan-2-yl)-1H-pyrazol-3-yl}-2H-indazol-2-yl)-1-phenylethan-1-ol]
2 | 23 | 7.50 | Cc1c(C(C)C)c(-c2cccc3nn(C[C@H](O)c4ccccc4)cc23)nn1-c1cc2cn(C)nc2nc1CN(C)C [Example 112]
3 | 23 | 7.20 | Cc1c(C(C)C)c(-c2cccc3nn(C[C@H](O)c4ccccc4)cc23)nn1-c1cc2cn(C)nc2nc1C(C)(C)C [Example 113, (1R)-2-[4-(1-{6-tert-butyl-2-methyl-2H-pyrazolo[3,4-b]pyridin-5-yl}-5-methyl-4-(propan-2-yl)-1 H-pyrazol-3-yl)-2H-indazol-2-yl]-1-phenylethan-1-ol]
